# From ChEMBL document CHEMBL3808385, “Synthesis, antitumor evaluation and molecular docking studies of [1,2,4]triazolo[4,3-b][1,2,4,5]tetrazine derivatives” (Bioorg Med Chem Lett, 2016)
# How the values were obtained:
# [1] = Cytotoxicity against human HL60 cells assessed as cell growth inhibition after 72 hrs by MTT assay; format: functional, cell-based; conditions: HL-60, 72 h
# MCF7 = test: Cytotoxicity against human MCF7 cells assessed as cell growth inhibition after 72 hrs by MTT assay; format: functional, cell-based; conditions: MCF7, 72 h
# BeWo = test: Cytotoxicity against human Bewo cells assessed as cell growth inhibition after 72 hrs by MTT assay; format: functional, cell-based
# [2] = target: T1, Hepatocyte growth factor receptor (Homo sapiens, UniProt P08581); test: Inhibition of cMET (unknown origin) using TK substrate-biotin as substrate preincubated with compound followed by substrate addition for 40 mins measured after 1 hr by HTRF assay
# T1 sequence (P08581 whole entry): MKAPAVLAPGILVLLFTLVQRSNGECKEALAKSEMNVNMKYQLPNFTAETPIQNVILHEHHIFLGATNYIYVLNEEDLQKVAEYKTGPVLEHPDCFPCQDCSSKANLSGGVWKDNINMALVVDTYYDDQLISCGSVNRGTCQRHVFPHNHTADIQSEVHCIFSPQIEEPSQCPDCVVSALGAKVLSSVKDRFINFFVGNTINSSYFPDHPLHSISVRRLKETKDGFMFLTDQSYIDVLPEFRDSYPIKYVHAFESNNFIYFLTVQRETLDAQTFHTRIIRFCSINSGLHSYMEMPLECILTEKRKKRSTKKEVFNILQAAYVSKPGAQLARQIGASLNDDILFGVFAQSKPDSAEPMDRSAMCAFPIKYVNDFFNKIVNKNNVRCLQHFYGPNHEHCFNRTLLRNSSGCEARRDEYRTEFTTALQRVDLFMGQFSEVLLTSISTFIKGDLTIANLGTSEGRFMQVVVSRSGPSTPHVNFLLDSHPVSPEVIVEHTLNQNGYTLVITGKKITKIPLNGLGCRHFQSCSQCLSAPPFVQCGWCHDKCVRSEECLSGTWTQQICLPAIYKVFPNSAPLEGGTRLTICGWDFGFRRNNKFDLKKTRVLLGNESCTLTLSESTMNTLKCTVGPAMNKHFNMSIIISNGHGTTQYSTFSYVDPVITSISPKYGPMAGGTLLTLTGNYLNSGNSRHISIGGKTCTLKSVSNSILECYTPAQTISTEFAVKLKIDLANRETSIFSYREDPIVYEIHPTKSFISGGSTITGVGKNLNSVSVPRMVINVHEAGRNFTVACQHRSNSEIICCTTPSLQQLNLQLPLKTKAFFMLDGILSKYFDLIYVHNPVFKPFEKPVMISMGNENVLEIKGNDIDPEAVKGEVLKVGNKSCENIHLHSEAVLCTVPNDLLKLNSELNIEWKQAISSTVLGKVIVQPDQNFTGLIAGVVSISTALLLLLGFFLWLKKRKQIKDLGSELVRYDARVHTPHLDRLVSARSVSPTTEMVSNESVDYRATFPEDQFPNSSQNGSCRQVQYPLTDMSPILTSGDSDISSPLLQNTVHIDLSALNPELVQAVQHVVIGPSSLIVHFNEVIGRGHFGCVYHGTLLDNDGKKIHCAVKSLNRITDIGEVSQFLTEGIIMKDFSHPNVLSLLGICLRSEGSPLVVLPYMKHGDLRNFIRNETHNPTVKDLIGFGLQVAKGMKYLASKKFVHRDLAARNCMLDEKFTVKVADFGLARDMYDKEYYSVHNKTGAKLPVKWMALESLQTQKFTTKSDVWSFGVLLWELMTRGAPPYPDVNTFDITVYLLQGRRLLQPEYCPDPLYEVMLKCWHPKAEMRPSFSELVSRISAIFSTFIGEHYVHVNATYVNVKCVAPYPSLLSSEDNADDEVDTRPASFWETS
# [3] = target: T1, Hepatocyte growth factor receptor; test: Inhibition of cMET (unknown origin) using poly(Glu-Tyr) substrate incubated for 60 mins by ELISA
# Mus musculus [4] = test: Toxicity in ICR mouse assessed as convulsions on limbs at 72.9 mg/kg, ig measured after 14 days; format: organism-based, Limb; conditions: in vivo, po, 336 h
# Mus musculus [5] = test: Toxicity in ICR mouse assessed as pulmonary congestion at 72.9 mg/kg, ig measured after 14 days; format: organism-based; conditions: in vivo, po, 336 h
# Mus musculus [6] = test: Toxicity in ICR mouse assessed as body weight loss at 65.6 mg/kg, ig measured after 14 days; format: organism-based; conditions: in vivo, po, 336 h
# Mus musculus [7] = test: Toxicity in ICR mouse assessed as convulsions on limbs at 100 mg/kg, ig measured after 14 days; format: organism-based, Limb; conditions: in vivo, po, 336 h
# CCRF S-180 [8] = test: Antitumor activity against mouse S180 cells xenografted in ICR mouse assessed as tumor growth inhibition at 20 mg/kg, ig administered once daily for 7 days starting from second day post xenograft measured after 10 days; format: functional; conditions: CCRF S-180, po, read-out: TGI
# Mus musculus [9] = test: Toxicity in ICR mouse assessed as loss of locomotor activity at 90 mg/kg, ig measured after 14 days; format: organism-based; conditions: in vivo, po, 336 h
# Mus musculus [10] = test: Toxicity in ICR mouse assessed as respiratory depression at 72.9 mg/kg, ig measured after 14 days; format: organism-based; conditions: in vivo, po, 336 h
# Mus musculus [11] = test: Toxicity in ICR mouse assessed as pulmonary congestion at 100 mg/kg, ig measured after 14 days; format: organism-based; conditions: in vivo, po, 336 h
# Mus musculus [12] = test: Toxicity in ICR mouse assessed as loss of locomotor activity at 81 mg/kg, ig measured after 14 days; format: organism-based; conditions: in vivo, po, 336 h
# CCRF S-180 [13] = test: Antitumor activity against mouse S180 cells xenografted in ICR mouse assessed as tumor growth inhibition at 10 mg/kg, ig administered once daily for 7 days starting from second day post xenograft measured after 10 days; format: functional; conditions: CCRF S-180, po, read-out: TGI
# Mus musculus [14] = test: Toxicity in ICR mouse assessed as clinical signs parameters at 65.6 mg/kg, ig measured after 14 days; format: organism-based; conditions: in vivo, po, 336 h
# Mus musculus [15] = test: Toxicity in ICR mouse assessed as pulmonary congestion at 81 mg/kg, ig measured after 14 days; format: organism-based; conditions: in vivo, po, 336 h
# [16] = Toxicity in ig dosed ICR mouse assessed as mortality measured after 14 days; format: organism-based; conditions: in vivo, po
# Mus musculus [17] = test: Toxicity in ICR mouse assessed as loss of locomotor activity at 100 mg/kg, ig measured after 14 days; format: organism-based; conditions: in vivo, po, 336 h
# Mus musculus [18] = test: Toxicity in ICR mouse assessed as respiratory depression at 100 mg/kg, ig measured after 14 days; format: organism-based; conditions: in vivo, po, 336 h
# Mus musculus [19] = test: Toxicity in ICR mouse assessed as convulsions on limbs at 90 mg/kg, ig measured after 14 days; format: organism-based, Limb; conditions: in vivo, po, 336 h
# CCRF S-180 [20] = test: Antitumor activity against mouse S180 cells xenografted in ICR mouse assessed as tumor growth inhibition at 5 mg/kg, ig administered once daily for 7 days starting from second day post xenograft measured after 10 days; format: functional; conditions: CCRF S-180, po, read-out: TGI
# Mus musculus [21] = test: Toxicity in ICR mouse assessed as respiratory depression at 81 mg/kg, ig measured after 14 days; format: organism-based; conditions: in vivo, po, 336 h
# Mus musculus [22] = test: Toxicity in ICR mouse assessed as respiratory depression at 90 mg/kg, ig measured after 14 days; format: organism-based; conditions: in vivo, po, 336 h
# [23] = Toxicity in ICR mouse assessed as mortality at 72.9 mg/kg, ig measured after 14 days; format: organism-based; conditions: in vivo, po
# Mus musculus [24] = test: Toxicity in ICR mouse assessed as pulmonary congestion at 90 mg/kg, ig measured after 14 days; format: organism-based; conditions: in vivo, po, 336 h
# Mus musculus [25] = test: Toxicity in ICR mouse assessed as convulsions on limbs at 81 mg/kg, ig measured after 14 days; format: organism-based, Limb; conditions: in vivo, po, 336 h
# [26] = Toxicity in ICR mouse assessed as mortality at 65.6 mg/kg, ig measured after 14 days; format: organism-based; conditions: in vivo, po
# Mus musculus [27] = test: Toxicity in ICR mouse assessed as loss of locomotor activity at 72.9 mg/kg, ig measured after 14 days; format: organism-based; conditions: in vivo, po, 336 h
smiles,measurement,setting,value
CCCCCC(=O)N1CCN(c2nnc3nncn3n2)CC1,IC50,[1],3.61 µM
same,IC50,MCF7,5.26 µM
same,IC50,BeWo,2.96 µM
O=C(c1ccc(Cl)cc1)N1CCN(c2nnc3nncn3n2)CC1,IC50,[1],12.3 µM
same,IC50,MCF7,12.8 µM
same,IC50,BeWo,7.51 µM
CC(C)C(=O)N1CCN(c2nnc3nncn3n2)CC1,IC50,[1],1.61 µM
same,IC50,[2],23.7 µM
same,IC50,MCF7,1.81 µM
same,IC50,BeWo,1.09 µM
O=C(Cc1ccccc1)N1CCN(c2nnc3nncn3n2)CC1,IC50,[1],1.85 µM
same,IC50,MCF7,3.08 µM
same,IC50,BeWo,2.77 µM
CCCC(=O)N1CCN(c2nnc3nncn3n2)CC1,IC50,[1],9.84 µM
same,IC50,MCF7,6.91 µM
same,IC50,BeWo,6.73 µM
O=C(c1ccc([N+](=O)[O-])cc1)N1CCN(c2nnc3nncn3n2)CC1,IC50,[1],17.2 µM
same,IC50,MCF7,4.53 µM
same,IC50,BeWo,3.1 µM
COc1ccc2c(OCc3nnc4nnc(-c5ccccc5)nn34)ccnc2c1,IC50,[3],0.006 µM
CC(Nc1nnc2nncn2n1)C(=O)O (stereo not drawn),IC50,[1],74.2 µM
same,IC50,MCF7,> 100 µM
same,IC50,BeWo,82.2 µM
c1ccc(CN2CCN(c3nnc4nncn4n3)CC2)cc1,IC50,[1],14.2 µM
same,IC50,MCF7,27.3 µM
same,IC50,BeWo,5.1 µM
c1nnc2nnc(NC3CCCC3)nn12,IC50,[1],38.1 µM
same,IC50,MCF7,88.2 µM
same,IC50,BeWo,34.6 µM
c1nnc2nnc(NC3CCCCC3)nn12,IC50,[1],6.61 µM
same,IC50,MCF7,3.51 µM
same,IC50,BeWo,2.65 µM
O=C(C1CCCCC1)N1CCN(c2nnc3nncn3n2)CC1,IC50,[1],1.16 µM
same,IC50,[2],7.9 µM
same,IC50,MCF7,1.26 µM
same,IC50,BeWo,1.9 µM
c1nnc2nnc(N3CCCCC3)nn12,IC50,[1],23.6 µM
same,IC50,MCF7,27.2 µM
same,IC50,BeWo,10.8 µM
Nc1nnc2nncn2n1,IC50,[1],68.5 µM
same,IC50,MCF7,46.5 µM
same,IC50,BeWo,17.3 µM
OCCNc1nnc2nncn2n1,IC50,[1],45.3 µM
same,IC50,MCF7,11.6 µM
same,IC50,BeWo,3.31 µM
CN(C)c1nnc2nncn2n1,IC50,[1],4.84 µM
same,IC50,MCF7,7.76 µM
same,IC50,BeWo,0.61 µM
CCCCNc1nnc2nncn2n1,IC50,[1],36.2 µM
same,IC50,MCF7,13.7 µM
same,IC50,BeWo,8.64 µM
CN1CCN(c2nnc3nncn3n2)CC1,IC50,[1],8.54 µM
same,IC50,MCF7,21.6 µM
same,IC50,BeWo,7.99 µM
c1nnc2nnc(N3CCCC3)nn12,IC50,[1],24.4 µM
same,IC50,MCF7,5.13 µM
same,IC50,BeWo,4.29 µM
CCC(=O)N1CCN(c2nnc3nncn3n2)CC1,IC50,[1],10.1 µM
same,IC50,MCF7,14.8 µM
same,IC50,BeWo,13.7 µM
CC(C)(C)C(=O)N1CCN(c2nnc3nncn3n2)CC1,IC50,[1],1.38 µM
same,IC50,MCF7,5.51 µM
same,IC50,BeWo,2.41 µM
c1ccc(CCNc2nnc3nncn3n2)cc1,IC50,[1],4.15 µM
same,IC50,MCF7,1.24 µM
same,IC50,BeWo,2.49 µM
Cc1cc(C)n(-c2nnc3nncn3n2)n1,IC50,[1],63.3 µM
same,IC50,MCF7,> 100 µM
same,IC50,BeWo,47.3 µM
OCC(CO)(CO)Nc1nnc2nncn2n1,IC50,[1],> 100 µM
same,IC50,MCF7,> 100 µM
same,IC50,BeWo,12.4 µM
CCCNc1nnc2nncn2n1,IC50,[1],15.1 µM
same,IC50,MCF7,19.8 µM
same,IC50,BeWo,14.3 µM
CCCCC(=O)N1CCN(c2nnc3nncn3n2)CC1,IC50,[1],3.13 µM
same,IC50,MCF7,2.76 µM
same,IC50,BeWo,1.72 µM
O=C(c1ccccc1)N1CCN(c2nnc3nncn3n2)CC1,IC50,[1],4.67 µM
same,IC50,MCF7,8.38 µM
same,IC50,BeWo,5.87 µM
CC(=O)N1CCN(c2nnc3nncn3n2)CC1,IC50,[1],14.7 µM
same,IC50,MCF7,13.9 µM
same,IC50,BeWo,13.1 µM
c1nnc2nnc(N3CCOCC3)nn12,Activity,Mus musculus [4],Toxic
same,Activity,Mus musculus [5],Toxic
same,Activity,Mus musculus [6],Non-toxic
same,Activity,Mus musculus [7],Toxic
same,inhibition in vivo at 20 mg/kg,CCRF S-180 [8],27.9%
same,Activity,Mus musculus [9],Toxic
same,Activity,Mus musculus [10],Toxic
same,Activity,Mus musculus [11],Toxic
same,Activity,Mus musculus [12],Toxic
same,inhibition in vivo at 10 mg/kg,CCRF S-180 [13],63%
same,IC50,[1],1.45 µM
same,Activity,Mus musculus [14],Non-toxic
same,Activity,Mus musculus [15],Toxic
same,IC50,[2],11.8 µM
same,IC50,MCF7,2.24 µM
same,LD50 at 336 h,[16],82.5 mg/kg
same,Activity,Mus musculus [17],Toxic
same,Activity,Mus musculus [18],Toxic
same,Activity,Mus musculus [19],Toxic
same,inhibition in vivo at 5 mg/kg,CCRF S-180 [20],24.2%
same,Activity,Mus musculus [21],Toxic
same,Activity,Mus musculus [22],Toxic
same,mortality at 336 h,[23],25%
same,Activity,Mus musculus [24],Toxic
same,IC50,BeWo,1.3 µM
same,Activity,Mus musculus [25],Toxic
same,mortality at 336 h,[26],0%
same,Activity,Mus musculus [27],Toxic
CC(C)COC(=O)N1CCN(c2nnc3nncn3n2)CC1,IC50,[1],7.93 µM
same,IC50,MCF7,5.39 µM
same,IC50,BeWo,13.1 µM
Cc1ccc(C(=O)N2CCN(c3nnc4nncn4n3)CC2)cc1,IC50,[1],9.31 µM
same,IC50,MCF7,15.9 µM
same,IC50,BeWo,14.3 µM
